Experimental data reported in patent US20110071108A1, “Beta-Cyclodextrin Derivatives as Antibacterial Agents” (Pinnacle Pharmaceuticals, Inc., priority 2005, published 2011).

What was measured:
Assay in all cases: Bacterial panel testing, MIC by broth microdilution
Assay type in all cases: cell-based
Conditions in all cases: 20-24 hours growth
Bacillus atrophaeus = tested on: Bacillus atrophaeus
Method in brief: (§1)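 Twofold broth microdilution: compound, prepared at 10 μg/ml in DMSO, serially diluted left to right in inoculated Mueller-Hinton or Brain Heart infusion media. Inoculum from 2-4 h cultures at 37° C, standardized to McFarland density. Plates sealed and grown 20-24 h, then clear wells scored.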

Enterococcus faecium = tested on: Enterococcus faecium
Method in brief: as §1

Staphylococcus aureus = tested on: Staphylococcus aureus
Method in brief: as §1

Pseudomonas aeruginosa = tested on: Pseudomonas aeruginosa
Method in brief: as §1

Salmonella choleraesuis = tested on: Salmonella choleraesuis
Method in brief: as §1

Eschericia coli = tested on: Eschericia coli
Method in brief: as §1

CSCCC(N)C(=O)NCC1OC2OC3C(CNC(=O)C(N)CCSC)OC(OC4C(CNC(=O)C(N)CCSC)OC(OC5C(CNC(=O)C(N)CCSC)OC(OC6C(CNC(=O)C(N)CCSC)OC(OC7C(CNC(=O)C(N)CCSC)OC(OC8C(CNC(=O)C(N)CCSC)OC(OC1C(O)C2O)C(O)C8O)C(O)C7O)C(O)C6O)C(O)C5O)C(O)C4O)C(O)C3O.Cl.Cl.Cl.Cl.Cl.Cl.Cl (stereo not drawn)
>200 mg/L: MIC BA (Bacillus atrophaeus) | MIC EF (Enterococcus faecium) | MIC SA (Staphylococcus aureus) | MIC PA (Pseudomonas aeruginosa) | MIC SC (Salmonella choleraesuis) | MIC EC (Eschericia coli)

O=C(Cn1ccnc1)NCC1OC2OC3C(CNC(=O)Cn4ccnc4)OC(OC4C(CNC(=O)Cn5ccnc5)OC(OC5C(CNC(=O)Cn6ccnc6)OC(OC6C(CNC(=O)Cn7ccnc7)OC(OC7C(CNC(=O)Cn8ccnc8)OC(OC8C(CNC(=O)Cn9ccnc9)OC(OC1C(O)C2O)C(O)C8O)C(O)C7O)C(O)C6O)C(O)C5O)C(O)C4O)C(O)C3O (stereo not drawn)
>200 mg/L: MIC BA (Bacillus atrophaeus) | MIC EF (Enterococcus faecium) | MIC SA (Staphylococcus aureus) | MIC PA (Pseudomonas aeruginosa) | MIC SC (Salmonella choleraesuis) | MIC EC (Eschericia coli)

OCC1OC(OCc2cn(CC3OC4OC5C(Cn6cc(COC7OC(CO)C(O)C(O)C7O)nn6)OC(OC6C(Cn7cc(COC8OC(CO)C(O)C(O)C8O)nn7)OC(OC7C(Cn8cc(COC9OC(CO)C(O)C(O)C9O)nn8)OC(OC8C(Cn9cc(COC%10OC(CO)C(O)C(O)C%10O)nn9)OC(OC9C(Cn%10cc(COC%11OC(CO)C(O)C(O)C%11O)nn%10)OC(OC%10C(Cn%11cc(COC%12OC(CO)C(O)C(O)C%12O)nn%11)OC(OC3C(O)C4O)C(O)C%10O)C(O)C9O)C(O)C8O)C(O)C7O)C(O)C6O)C(O)C5O)nn2)C(O)C(O)C1O (stereo not drawn)
>200 mg/L: MIC BA (Bacillus atrophaeus) | MIC EF (Enterococcus faecium) | MIC SA (Staphylococcus aureus) | MIC PA (Pseudomonas aeruginosa) | MIC SC (Salmonella choleraesuis) | MIC EC (Eschericia coli)

CN(C)CCNCC(=O)NCC1OC2OC3C(CNC(=O)CNCCN(C)C)OC(OC4C(CNC(=O)CNCCN(C)C)OC(OC5C(CNC(=O)CNCCN(C)C)OC(OC6C(CNC(=O)CNCCN(C)C)OC(OC7C(CNC(=O)CNCCN(C)C)OC(OC8C(CNC(=O)CNCCN(C)C)OC(OC1C(O)C2O)C(O)C8O)C(O)C7O)C(O)C6O)C(O)C5O)C(O)C4O)C(O)C3O.Cl.Cl.Cl.Cl.Cl.Cl.Cl (stereo not drawn)
>200 mg/L: MIC BA (Bacillus atrophaeus) | MIC EF (Enterococcus faecium) | MIC SA (Staphylococcus aureus) | MIC SC (Salmonella choleraesuis) | MIC EC (Eschericia coli)

Cl.Cl.Cl.Cl.Cl.Cl.Cl.O=C(CN1CCOCC1)NCC1OC2OC3C(CNC(=O)CN4CCOCC4)OC(OC4C(CNC(=O)CN5CCOCC5)OC(OC5C(CNC(=O)CN6CCOCC6)OC(OC6C(CNC(=O)CN7CCOCC7)OC(OC7C(CNC(=O)CN8CCOCC8)OC(OC8C(CNC(=O)CN9CCOCC9)OC(OC1C(O)C2O)C(O)C8O)C(O)C7O)C(O)C6O)C(O)C5O)C(O)C4O)C(O)C3O (stereo not drawn)
>200 mg/L: MIC BA (Bacillus atrophaeus) | MIC EF (Enterococcus faecium) | MIC SA (Staphylococcus aureus) | MIC PA (Pseudomonas aeruginosa) | MIC SC (Salmonella choleraesuis) | MIC EC (Eschericia coli)

CC(C)(C)OC(=O)NCCCC[C@H](N)C(=O)NCC1OC2OC3C(CNC(=O)[C@@H](N)CCCCNC(=O)OC(C)(C)C)OC(OC4C(CNC(=O)[C@@H](N)CCCCNC(=O)OC(C)(C)C)OC(OC5C(CNC(=O)[C@@H](N)CCCCNC(=O)OC(C)(C)C)OC(OC6C(CNC(=O)[C@@H](N)CCCCNC(=O)OC(C)(C)C)OC(OC7C(CNC(=O)[C@@H](N)CCCCNC(=O)OC(C)(C)C)OC(OC8C(CNC(=O)[C@@H](N)CCCCNC(=O)OC(C)(C)C)OC(OC1C(O)C2O)C(O)C8O)C(O)C7O)C(O)C6O)C(O)C5O)C(O)C4O)C(O)C3O (stereo partly drawn)
>200 mg/L: MIC BA (Bacillus atrophaeus) | MIC EF (Enterococcus faecium) | MIC SA (Staphylococcus aureus) | MIC PA (Pseudomonas aeruginosa) | MIC SC (Salmonella choleraesuis) | MIC EC (Eschericia coli)

Cl.Cl.Cl.Cl.Cl.Cl.Cl.Cl.Cl.Cl.Cl.Cl.Cl.Cl.Cl.Cl.Cl.Cl.Cl.Cl.Cl.NCCCCC(N)C(=O)NC(CCCCN)C(=O)NCC1OC2OC3C(CNC(=O)C(CCCCN)NC(=O)C(N)CCCCN)OC(OC4C(CNC(=O)C(CCCCN)NC(=O)C(N)CCCCN)OC(OC5C(CNC(=O)C(CCCCN)NC(=O)C(N)CCCCN)OC(OC6C(CNC(=O)C(CCCCN)NC(=O)C(N)CCCCN)OC(OC7C(CNC(=O)C(CCCCN)NC(=O)C(N)CCCCN)OC(OC8C(CNC(=O)C(CCCCN)NC(=O)C(N)CCCCN)OC(OC1C(O)C2O)C(O)C8O)C(O)C7O)C(O)C6O)C(O)C5O)C(O)C4O)C(O)C3O (stereo not drawn)
>200 mg/L: MIC BA (Bacillus atrophaeus) | MIC EF (Enterococcus faecium) | MIC SA (Staphylococcus aureus) | MIC PA (Pseudomonas aeruginosa) | MIC SC (Salmonella choleraesuis) | MIC EC (Eschericia coli)

Cl.Cl.Cl.Cl.Cl.Cl.Cl.O=C(NCC1OC2OC3C(CNC(=O)C4CC(O)CN4)OC(OC4C(CNC(=O)C5CC(O)CN5)OC(OC5C(CNC(=O)C6CC(O)CN6)OC(OC6C(CNC(=O)C7CC(O)CN7)OC(OC7C(CNC(=O)C8CC(O)CN8)OC(OC8C(CNC(=O)C9CC(O)CN9)OC(OC1C(O)C2O)C(O)C8O)C(O)C7O)C(O)C6O)C(O)C5O)C(O)C4O)C(O)C3O)C1CC(O)CN1 (stereo not drawn)
>200 mg/L: MIC BA (Bacillus atrophaeus) | MIC EF (Enterococcus faecium) | MIC SA (Staphylococcus aureus) | MIC PA (Pseudomonas aeruginosa) | MIC SC (Salmonella choleraesuis) | MIC EC (Eschericia coli)

O[C@@H]1[C@@H](O)[C@H]2O[C@H]3[C@H](O)[C@@H](O)[C@@H](O[C@H]4[C@H](O)[C@@H](O)[C@@H](O[C@H]5[C@H](O)[C@@H](O)[C@@H](O[C@H]6[C@H](O)[C@@H](O)[C@@H](O[C@H]7[C@H](O)[C@@H](O)[C@@H](O[C@H]8[C@H](O)[C@@H](O)[C@@H](O[C@@H]1[C@@H](Cn1ccnc1)O2)O[C@@H]8Cn1ccnc1)O[C@@H]7Cn1ccnc1)O[C@@H]6Cn1ccnc1)O[C@@H]5Cn1ccnc1)O[C@@H]4Cn1ccnc1)O[C@@H]3Cn1ccnc1
>200 mg/L: MIC BA (Bacillus atrophaeus) | MIC EF (Enterococcus faecium) | MIC SA (Staphylococcus aureus) | MIC PA (Pseudomonas aeruginosa) | MIC SC (Salmonella choleraesuis) | MIC EC (Eschericia coli)

OCCCNC[C@H]1O[C@@H]2O[C@H]3[C@H](O)[C@@H](O)[C@@H](O[C@H]4[C@H](O)[C@@H](O)[C@@H](O[C@H]5[C@H](O)[C@@H](O)[C@@H](O[C@H]6[C@H](O)[C@@H](O)[C@@H](O[C@H]7[C@H](O)[C@@H](O)[C@@H](O[C@H]8[C@H](O)[C@@H](O)[C@@H](O[C@H]1[C@H](O)[C@H]2O)O[C@@H]8CNCCCO)O[C@@H]7CNCCCO)O[C@@H]6CNCCCO)O[C@@H]5CNCCCO)O[C@@H]4CNCCCO)O[C@@H]3CNCCCO
>200 mg/L: MIC BA (Bacillus atrophaeus) | MIC EF (Enterococcus faecium) | MIC SA (Staphylococcus aureus) | MIC PA (Pseudomonas aeruginosa) | MIC SC (Salmonella choleraesuis) | MIC EC (Eschericia coli)

CN(C)CCNC[C@H]1O[C@@H]2O[C@H]3[C@H](O)[C@@H](O)[C@@H](O[C@H]4[C@H](O)[C@@H](O)[C@@H](O[C@H]5[C@H](O)[C@@H](O)[C@@H](O[C@H]6[C@H](O)[C@@H](O)[C@@H](O[C@H]7[C@H](O)[C@@H](O)[C@@H](O[C@H]8[C@H](O)[C@@H](O)[C@@H](O[C@H]1[C@H](O)[C@H]2O)O[C@@H]8CNCCN(C)C)O[C@@H]7CNCCN(C)C)O[C@@H]6CNCCN(C)C)O[C@@H]5CNCCN(C)C)O[C@@H]4CNCCN(C)C)O[C@@H]3CNCCN(C)C
>200 mg/L: MIC BA (Bacillus atrophaeus) | MIC EF (Enterococcus faecium) | MIC SA (Staphylococcus aureus) | MIC PA (Pseudomonas aeruginosa) | MIC SC (Salmonella choleraesuis) | MIC EC (Eschericia coli)

O[C@@H]1[C@@H](O)[C@H]2O[C@H]3[C@H](O)[C@@H](O)[C@@H](O[C@H]4[C@H](O)[C@@H](O)[C@@H](O[C@H]5[C@H](O)[C@@H](O)[C@@H](O[C@H]6[C@H](O)[C@@H](O)[C@@H](O[C@H]7[C@H](O)[C@@H](O)[C@@H](O[C@H]8[C@H](O)[C@@H](O)[C@@H](O[C@@H]1[C@@H](CN1CCOCC1)O2)O[C@@H]8CN1CCOCC1)O[C@@H]7CN1CCOCC1)O[C@@H]6CN1CCOCC1)O[C@@H]5CN1CCOCC1)O[C@@H]4CN1CCOCC1)O[C@@H]3CN1CCOCC1
>200 mg/L: MIC BA (Bacillus atrophaeus) | MIC EF (Enterococcus faecium) | MIC SA (Staphylococcus aureus) | MIC PA (Pseudomonas aeruginosa) | MIC SC (Salmonella choleraesuis) | MIC EC (Eschericia coli)

Oc1ccc(NC[C@H]2O[C@@H]3O[C@H]4[C@H](O)[C@@H](O)[C@@H](O[C@H]5[C@H](O)[C@@H](O)[C@@H](O[C@H]6[C@H](O)[C@@H](O)[C@@H](O[C@H]7[C@H](O)[C@@H](O)[C@@H](O[C@H]8[C@H](O)[C@@H](O)[C@@H](O[C@H]9[C@H](O)[C@@H](O)[C@@H](O[C@H]2[C@H](O)[C@H]3O)O[C@@H]9CNc2ccc(O)cc2)O[C@@H]8CNc2ccc(O)cc2)O[C@@H]7CNc2ccc(O)cc2)O[C@@H]6CNc2ccc(O)cc2)O[C@@H]5CNc2ccc(O)cc2)O[C@@H]4CNc2ccc(O)cc2)cc1
>200 mg/L: MIC BA (Bacillus atrophaeus) | MIC EF (Enterococcus faecium) | MIC SA (Staphylococcus aureus) | MIC PA (Pseudomonas aeruginosa) | MIC SC (Salmonella choleraesuis) | MIC EC (Eschericia coli)

CCCCCCCCCCCCNCC1OC2OC3C(CNCCCCCCCCCCCC)OC(OC4C(CNCCCCCCCCCCCC)OC(OC5C(CNCCCCCCCCCCCC)OC(OC6C(CNCCCCCCCCCCCC)OC(OC7C(CNCCCCCCCCCCCC)OC(OC8C(CNCCCCCCCCCCCC)OC(OC1C(O)C2O)C(O)C8O)C(O)C7O)C(O)C6O)C(O)C5O)C(O)C4O)C(O)C3O (stereo not drawn)
>200 mg/L: MIC BA (Bacillus atrophaeus) | MIC EF (Enterococcus faecium) | MIC PA (Pseudomonas aeruginosa) | MIC SC (Salmonella choleraesuis) | MIC EC (Eschericia coli)

CCCCCCCCCCCCCCCCNCC1OC2OC3C(CNCCCCCCCCCCCCCCCC)OC(OC4C(CNCCCCCCCCCCCCCCCC)OC(OC5C(CNCCCCCCCCCCCCCCCC)OC(OC6C(CNCCCCCCCCCCCCCCCC)OC(OC7C(CNCCCCCCCCCCCCCCCC)OC(OC8C(CNCCCCCCCCCCCCCCCC)OC(OC1C(O)C2O)C(O)C8O)C(O)C7O)C(O)C6O)C(O)C5O)C(O)C4O)C(O)C3O (stereo not drawn)
>200 mg/L: MIC BA (Bacillus atrophaeus) | MIC EF (Enterococcus faecium) | MIC PA (Pseudomonas aeruginosa) | MIC SC (Salmonella choleraesuis) | MIC EC (Eschericia coli)
